Measurements reported in patent publication US10159678B2, “Methods to decrease susceptibility to asthmatic bronchoconstriction” (Cornell University, priority 2012, dated 2018).

Legend:
Format in all cases: in vivo, mice
[1] = system: lung inflammation; experiment: Assessment of inflammation (BAL cells, lung histology, cytokine mRNA) after myriocin
Procedure: BAL was collected by intratracheal instillations of PBS (2×0.5 ml). Cell differentials were determined by Giemsa stain on cytospin preparations. Cell viability was determined by trypan blue exclusion. Expression of TNF-α, IL-6 and IL-1β in the lung was quantified by TaqMan RealTime RT-PCR. RNA was extracted using TRIzol (Invitrogen). […] RNA levels were quantified using the ΔΔCt method and normalized to expression of murine ribosomal 18s (4310893E, Applied Biosystems). For lung histology, lungs were inflated with 4% paraformaldehyde at 25 cm H2O and 5 μm paraffin sections were stained with hematoxylin and eosin (H&E).

[2] = system: ORMDL1, ORMDL2 and ORMDL3 mRNA; experiment: ORMDL1, 2 and 3 mRNA expression in lung tissue (RealTime RT-PCR); details: 20 μg myriocin; FIG. 2H
Procedure: RNA was extracted from lungs using TRIzol (Invitrogen). Following reverse transcription of 3 μg RNA, ORMDL1, 2 and 3 mRNAs were amplified using the following primers and probes (Roche Applied Science): RNA levels were quantified using the ΔΔCt method and normalized to expression of murine ribosomal 18s (4310893E, Applied Biosystems). To assess if ORMDL expression was altered with decreased activity of SPT, mRNA expression of ORMDL1, 2 and 3 in lung tissue was analyzed following myriocin treatment and in the Sptlc2^+/− mice. Expression of ORMDL1, 2 or 3 was not affected by myriocin (FIG. 2H) or by genetic SPT deficiency (FIG. 2I).

[3] = target: T1, SPT (Mus musculus, UniProt O35704+P97363); experiment: Incorporation of 3H-serine / 3H-sphingosine in lung homogenates after intranasal myriocin
T1 construct: from tissue
T1 sequence (P97363 1-560): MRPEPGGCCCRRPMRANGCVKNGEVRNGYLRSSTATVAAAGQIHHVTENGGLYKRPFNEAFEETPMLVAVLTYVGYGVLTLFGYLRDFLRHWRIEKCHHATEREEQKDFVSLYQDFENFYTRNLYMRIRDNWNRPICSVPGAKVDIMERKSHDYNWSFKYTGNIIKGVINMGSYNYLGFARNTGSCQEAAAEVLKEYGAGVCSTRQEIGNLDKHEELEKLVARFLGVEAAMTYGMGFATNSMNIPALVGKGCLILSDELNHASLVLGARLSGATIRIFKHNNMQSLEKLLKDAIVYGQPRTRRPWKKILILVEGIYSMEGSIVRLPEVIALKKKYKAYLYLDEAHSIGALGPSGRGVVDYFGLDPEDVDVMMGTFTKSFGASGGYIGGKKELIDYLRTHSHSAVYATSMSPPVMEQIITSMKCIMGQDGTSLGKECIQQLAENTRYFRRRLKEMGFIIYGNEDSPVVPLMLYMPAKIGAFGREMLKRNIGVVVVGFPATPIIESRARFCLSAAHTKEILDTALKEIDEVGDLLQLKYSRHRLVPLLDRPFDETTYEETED
T1 sequence (O35704 1-473): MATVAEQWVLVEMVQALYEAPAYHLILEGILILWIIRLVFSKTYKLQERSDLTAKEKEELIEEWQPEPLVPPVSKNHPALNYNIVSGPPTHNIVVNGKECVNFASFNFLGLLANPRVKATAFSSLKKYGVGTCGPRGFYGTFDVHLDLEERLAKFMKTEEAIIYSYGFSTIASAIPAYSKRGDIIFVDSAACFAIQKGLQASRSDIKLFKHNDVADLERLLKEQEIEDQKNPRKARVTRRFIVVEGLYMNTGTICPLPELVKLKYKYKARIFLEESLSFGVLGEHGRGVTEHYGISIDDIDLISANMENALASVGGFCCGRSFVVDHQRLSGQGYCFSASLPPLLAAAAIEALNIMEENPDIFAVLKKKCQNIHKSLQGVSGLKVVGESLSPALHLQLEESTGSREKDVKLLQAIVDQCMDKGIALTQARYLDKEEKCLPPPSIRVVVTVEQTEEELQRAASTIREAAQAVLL
T1 sequence (Q8R207 1-71 partner): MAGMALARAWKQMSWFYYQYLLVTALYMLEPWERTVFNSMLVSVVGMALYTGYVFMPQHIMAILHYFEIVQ
Procedure: Lungs were harvested following perfusion with phosphate-buffered saline (PBS, Invitrogen, Carlsbad, Calif.) containing 0.6 mM ethylenediamine tetra acetic acid dipotassium salt dehydrate (EDTA, Invitrogen) via the right ventricle to remove blood cells from the pulmonary circulation. The lungs were then homogenized in normal PBS. De-novo sphingolipid synthesis was assessed by evaluating incorporation of ^3H-serine (24.1 Ci/mmol, Perkin Elmer (Boston, Mass.) into ceramide and sphingosine. Sphingolipid synthesis through the recycling pathway was assessed by evaluating incorporation of ^3H-sphingosine (18.2 Ci/mmol, Perkin Elmer (Boston, Mass.) into ceramide and sphingomyelin. In both assays, equal amounts of fresh lung homogenates were incubated for 30 min at 37° C. with 2 μl of the radioactive tracer, followed by lyophilization to determine dry weight, lipid extraction with chloroform/methanol/water (1:1:0.9). The organic phase was evaporated, dissolved in 50 μl chloroform/methanol (1:1) spotted on […] chromatography plates (TLC) (Merck Silica gel 60, Darmstadt, Germany) and chromatographed for 25 min with chloroform-methanol-ammonium hydroxide (65:25:4 v/v). […] The TLC plate was cut at the corresponding lipid spot, mixed with scintillation fluid (Ultima Gold, Packard Instrument Company, CT) and analyzed in a scintillation counter (Perkin Elmer Wallac, Gaithersburg, Md.). […]

CCCCCCC(=O)CCCCCC/C=C/C[C@@H](O)[C@H](O)[C@@](N)(CO)C(=O)O [myriocin]
expression of IL-6 in the lungs ([1]; myriocin (20 μg) vs controls, FIG. 4H): No increases
expression of IL-1β in the lungs ([1]; myriocin (20 μg) vs controls, FIG. 4I): No increases
TNF-α expression in the lungs ([1]; myriocin (20 μg) vs controls, FIG. 4J): less
number of neutrophils in the BAL ([1]; myriocin-treated (20 μg) animals, FIG. 4B): small increase
inflammatory changes in lung sections (H&E) ([1]; myriocin-treated (20 μg) mice): No inflammatory changes
Expression of ORMDL1, 2 or 3 in lung tissue [2]: not affected
SPT-dependent synthesis of sphinganine from 3H-serine ([3]; 3 hours following intranasal administration of myriocin): significantly decreased
Non-SPT-dependent syntheses of ceramides or sphingomyelins from 3H-sphingosine ([3]; after myriocin administration, data not shown): not affected
